Experimental data: US20130272978A1, “DIHYDROXYACETONE MONOETHERS” (MERCK PATENT GMBH, priority 2010, published 2013)

What was measured:
[1] = Tanning experiment (liquid skin model); details: for L* (Lab values after 24 hours) / a* (Lab values after 24 hours) / b* (Lab values after 24 hours): 1 mmol substance + 1 mmol DL-lysine in ethylene glycol/water, pH=7, after 24 h, UV-VIS spectrometer; for Kinetics of tanning reaction compared with DHA: documented via photos; for Coloration/shade compared with DHA: from Lab values after 24 h; for Speed of tanning reaction relative to DHA: optical assessment
Protocol: Tanning Experiment (Liquid Skin Model)
1 mmol of the self-tanner substance to be tested are dissolved in 94 ml of ethylene glycol and 6 ml of water (potassium hydrogenphthalate-buffered to pH=7) with 146 mg of DL-lysine (1 mmol) and stirred for 24 hrs. (=liquid skin model). The kinetics are documented via photos. After 24 h, the colour values (L*a*b* system) of the solution are measured by UV-VIS spectrometer (Varian Cary-50) in order to be able to assess the effect on the skin tones.

[2] = Solubility in cosmetic oils (Finsolv TN); assay type: physicochemical

With `O=C(CO)COCc1ccccc1` [MBDE, 1-benzyloxy-3-hydroxypropan-2-one] the “L* (Lab values after 24 hours)” value [1] was 42.6, the “a* (Lab values after 24 hours)” value [1] was 32.0 and the “b* (Lab values after 24 hours)” value [1] was 70.0. The “Kinetics of tanning reaction compared with DHA” value [1] was “faster tanning reaction than DHA”, the “Coloration/shade compared with DHA” value [1] was “strong shift towards a redder shade” and the “Speed of tanning reaction relative to DHA” value [1] was “doubling of the speed”. The “Solubility in cosmetic oil” value [2] was 0.24%.

For `O=C(CO)COCC1CCCCC1` [MCHMDE, monocyclohexylmethyl-DHA ether], the “L* (Lab values after 24 hours)” value [1] was 45.3, the “a* (Lab values after 24 hours)” value [1] was 18.2 and the “b* (Lab values after 24 hours)” value [1] was 50.5. For the same compound, the “Coloration/shade compared with DHA” value [1] was “strong shift towards a more yellow shade” and the “Solubility in cosmetic oil” value [2] was 0.97%.

For `CCCCC(CC)COCC(=O)CO` (centres unmarked) [MEHDE, mono-2-ethylhexyl-DHA ether], the “L* (Lab values after 24 hours)” value [1] was 86.5, the “a* (Lab values after 24 hours)” value [1] was 4.7 and the “b* (Lab values after 24 hours)” value [1] was 24.3. For the same compound, the “Coloration/shade compared with DHA” value [1] was “paler coloration” and the “Solubility in cosmetic oil” value [2] was 2.25%.

In the case of `CCCCCCCOCC(=O)CO` [MHDE, 1-heptyloxy-3-hydroxypropan-2-one], the “L* (Lab values after 24 hours)” value [1] was 0.1, the “a* (Lab values after 24 hours)” value [1] was 0.4 and the “b* (Lab values after 24 hours)” value [1] was 0.2. The “Kinetics of tanning reaction compared with DHA” value [1] was “faster tanning reaction than DHA”, the “Coloration/shade compared with DHA” value [1] was “darker coloration” and the “Speed of tanning reaction relative to DHA” value [1] was “doubling of the speed”.
